Measurements as given in patent US8372391B2, “Biofungicidal composition for controlling phytopathogenic fungi” (priority 2009, dated 2013).

System: Serratia plymuthica CCGG2742
Assay: Susceptibility of Serratia plymuthica CCGG2742 to various antibiotics
Assay type: cell-based
Set-up: key: sensibility (S); resistance (R)

## NCC[C@H](O)C(=O)N[C@@H]1C[C@H](N)[C@@H](O[C@H]2O[C@H](CN)[C@@H](O)[C@H](O)[C@H]2O)[C@H](O)[C@H]1O[C@H]1O[C@H](CO)[C@@H](O)[C@H](N)[C@H]1O [Amikacine]
Antibiotic 30 μg
  Susceptibility of Serratia plymuthica CCGG2742 to antibiotic: S

## CC1(C)S[C@@H]2[C@H](NC(=O)[C@H](N)c3ccc(O)cc3)C(=O)N2[C@H]1C(=O)O [Amoxicillin]
Antibiotic 25 μg
  Susceptibility of Serratia plymuthica CCGG2742 to antibiotic: R

## CC1(C)S[C@@H]2[C@H](NC(=O)[C@H](N)c3ccccc3)C(=O)N2[C@H]1C(=O)O [Ampicillin]
Antibiotic 10 μg
  Susceptibility of Serratia plymuthica CCGG2742 to antibiotic: R

## C[C@H]1[C@H](NC(=O)/C(=N\OC(C)(C)C(=O)O)c2csc(N)n2)C(=O)N1S(=O)(=O)O [Aztreonam]
Antibiotic 30 μg
  Susceptibility of Serratia plymuthica CCGG2742 to antibiotic: S

## CC1(C)S[C@@H]2[C@H](NC(=O)C(C(=O)O)c3ccccc3)C(=O)N2[C@H]1C(=O)O (some centres unmarked) [Carbenicillin]
Antibiotic 100 μg
  Susceptibility of Serratia plymuthica CCGG2742 to antibiotic: S

## CC1=C(C(=O)O)N2C(=O)[C@@H](NC(=O)[C@H](N)c3ccc(O)cc3)[C@H]2SC1 [Cefadroxil]
Antibiotic 30 μg
  Susceptibility of Serratia plymuthica CCGG2742 to antibiotic: R

## CC(=O)OCC1=C(C(=O)O)N2C(=O)[C@@H](NC(=O)Cc3cccs3)[C@H]2SC1 [Cefalotin]
Antibiotic 30 μg
  Susceptibility of Serratia plymuthica CCGG2742 to antibiotic: R

## Cc1nnc(SCC2=C(C(=O)O)N3C(=O)[C@@H](NC(=O)Cn4cnnn4)[C@H]3SC2)s1 [Cefazolin]
Antibiotic 30 μg
  Susceptibility of Serratia plymuthica CCGG2742 to antibiotic: R

## CCN1CCN(C(=O)N[C@@H](C(=O)N[C@@H]2C(=O)N3C(C(=O)O)=C(CSc4nnnn4C)CS[C@H]23)c2ccc(O)cc2)C(=O)C1=O [Cefoperazone]
Antibiotic 75 μg
  Susceptibility of Serratia plymuthica CCGG2742 to antibiotic: S

## CO/N=C(\C(=O)N[C@@H]1C(=O)N2C(C(=O)O)=C(COC(C)=O)CS[C@H]12)c1csc(N)n1 [Cefotaxime]
Antibiotic 30 μg
  Susceptibility of Serratia plymuthica CCGG2742 to antibiotic: S

## CC(C)(O/N=C(\C(=O)N[C@@H]1C(=O)N2C(C(=O)[O-])=C(C[n+]3ccccc3)CS[C@H]12)c1csc(N)n1)C(=O)O [Ceftazidime]
Antibiotic 30 μg
  Susceptibility of Serratia plymuthica CCGG2742 to antibiotic: S

## CO/N=C(\C(=O)N[C@@H]1C(=O)N2C(C(=O)O)=C(CSc3nc(=O)c(=O)[nH]n3C)CS[C@H]12)c1csc(N)n1 [Ceftriaxone]
Antibiotic 30 μg
  Susceptibility of Serratia plymuthica CCGG2742 to antibiotic: S

## CO/N=C(\C(=O)N[C@@H]1C(=O)N2C(C(=O)O)=C(COC(N)=O)CS[C@H]12)c1ccco1 [Cefuroxime]
Antibiotic 30 μg
  Susceptibility of Serratia plymuthica CCGG2742 to antibiotic: R

## O=C(N[C@H](CO)[C@H](O)c1ccc([N+](=O)[O-])cc1)C(Cl)Cl [Chloramphenicol]
Antibiotic 30 μg
  Susceptibility of Serratia plymuthica CCGG2742 to antibiotic: S

## CCC[C@@H]1C[C@@H](C(=O)N[C@@H]([C@H]2O[C@H](SC)[C@H](O)[C@@H](O)[C@H]2O)[C@H](C)Cl)N(C)C1 [Clindamycin]
Antibiotic 2 μg
  Susceptibility of Serratia plymuthica CCGG2742 to antibiotic: R

## CC[C@H]1OC(=O)[C@H](C)[C@@H](O[C@H]2C[C@@](C)(OC)[C@@H](O)[C@H](C)O2)[C@H](C)[C@@H](O[C@@H]2O[C@H](C)C[C@H](N(C)C)[C@H]2O)[C@](C)(O)C[C@@H](C)C(=O)[C@H](C)[C@@H](O)[C@]1(C)O [Erythromycin]
Antibiotic 15 μg
  Susceptibility of Serratia plymuthica CCGG2742 to antibiotic: R

## O=C1CN(/N=C/c2ccc([N+](=O)[O-])o2)C(=O)N1 [Nitrofurantoin]
Antibiotic 300 μg
  Susceptibility of Serratia plymuthica CCGG2742 to antibiotic: R

## CO[C@@H]1[C@@H](OC(N)=O)[C@@H](O)[C@H](Oc2ccc3c(O)c(NC(=O)c4ccc(O)c(CC=C(C)C)c4)c(=O)oc3c2C)OC1(C)C [Novobiocin]
Antibiotic 5 μg
  Susceptibility of Serratia plymuthica CCGG2742 to antibiotic: R

## Cc1onc(-c2ccccc2)c1C(=O)N[C@@H]1C(=O)N2[C@@H]1SC(C)(C)[C@@H]2C(=O)O [Oxacillin]
Antibiotic 1 μg
  Susceptibility of Serratia plymuthica CCGG2742 to antibiotic: R

## CN(C)[C@@H]1C(O)=C(C(N)=O)C(=O)[C@@]2(O)C(O)=C3C(=O)c4c(O)cccc4[C@@](C)(O)[C@H]3C[C@@H]12 [Tetracycline]
Antibiotic 30 μg
  Susceptibility of Serratia plymuthica CCGG2742 to antibiotic: R

## CN[C@H](CC(C)C)C(=O)N[C@H]1C(=O)N[C@@H](CC(N)=O)C(=O)N[C@H]2C(=O)N[C@H]3C(=O)N[C@H](C(=O)N[C@H](C(=O)O)c4cc(O)cc(O)c4-c4cc3ccc4O)[C@H](O)c3ccc(c(Cl)c3)Oc3cc2cc(c3O[C@@H]2O[C@H](CO)[C@@H](O)[C@H](O)[C@H]2O[C@H]2C[C@](C)(N)[C@H](O)[C@H](C)O2)Oc2ccc(cc2Cl)[C@H]1O [Vancomycin]
Antibiotic 30 μg
  Susceptibility of Serratia plymuthica CCGG2742 to antibiotic: R

## Gentamicin
Antibiotic 10 μg
  Susceptibility of Serratia plymuthica CCGG2742 to antibiotic: S

## Penicillin
Antibiotic 10 U
  Susceptibility of Serratia plymuthica CCGG2742 to antibiotic: R
